This note sets out measurements from ChEMBL document CHEMBL2074071, “Fluorescent modified phosphatidylcholine floppase activity of reconstituted multidrug resistance-associated protein MRP1” (Biochim Biophys Acta, 2004).

The data set addresses Multidrug resistance-associated protein 1 (Homo sapiens, UniProt P33527). The data set is described as follows: TP_TRANSPORTER: translocation from outer to inner leaflet in MRP1-asolectin proteoliposome. Type of data set: functional, subcellular.

Chain of Multidrug resistance-associated protein 1 (P33527 whole entry): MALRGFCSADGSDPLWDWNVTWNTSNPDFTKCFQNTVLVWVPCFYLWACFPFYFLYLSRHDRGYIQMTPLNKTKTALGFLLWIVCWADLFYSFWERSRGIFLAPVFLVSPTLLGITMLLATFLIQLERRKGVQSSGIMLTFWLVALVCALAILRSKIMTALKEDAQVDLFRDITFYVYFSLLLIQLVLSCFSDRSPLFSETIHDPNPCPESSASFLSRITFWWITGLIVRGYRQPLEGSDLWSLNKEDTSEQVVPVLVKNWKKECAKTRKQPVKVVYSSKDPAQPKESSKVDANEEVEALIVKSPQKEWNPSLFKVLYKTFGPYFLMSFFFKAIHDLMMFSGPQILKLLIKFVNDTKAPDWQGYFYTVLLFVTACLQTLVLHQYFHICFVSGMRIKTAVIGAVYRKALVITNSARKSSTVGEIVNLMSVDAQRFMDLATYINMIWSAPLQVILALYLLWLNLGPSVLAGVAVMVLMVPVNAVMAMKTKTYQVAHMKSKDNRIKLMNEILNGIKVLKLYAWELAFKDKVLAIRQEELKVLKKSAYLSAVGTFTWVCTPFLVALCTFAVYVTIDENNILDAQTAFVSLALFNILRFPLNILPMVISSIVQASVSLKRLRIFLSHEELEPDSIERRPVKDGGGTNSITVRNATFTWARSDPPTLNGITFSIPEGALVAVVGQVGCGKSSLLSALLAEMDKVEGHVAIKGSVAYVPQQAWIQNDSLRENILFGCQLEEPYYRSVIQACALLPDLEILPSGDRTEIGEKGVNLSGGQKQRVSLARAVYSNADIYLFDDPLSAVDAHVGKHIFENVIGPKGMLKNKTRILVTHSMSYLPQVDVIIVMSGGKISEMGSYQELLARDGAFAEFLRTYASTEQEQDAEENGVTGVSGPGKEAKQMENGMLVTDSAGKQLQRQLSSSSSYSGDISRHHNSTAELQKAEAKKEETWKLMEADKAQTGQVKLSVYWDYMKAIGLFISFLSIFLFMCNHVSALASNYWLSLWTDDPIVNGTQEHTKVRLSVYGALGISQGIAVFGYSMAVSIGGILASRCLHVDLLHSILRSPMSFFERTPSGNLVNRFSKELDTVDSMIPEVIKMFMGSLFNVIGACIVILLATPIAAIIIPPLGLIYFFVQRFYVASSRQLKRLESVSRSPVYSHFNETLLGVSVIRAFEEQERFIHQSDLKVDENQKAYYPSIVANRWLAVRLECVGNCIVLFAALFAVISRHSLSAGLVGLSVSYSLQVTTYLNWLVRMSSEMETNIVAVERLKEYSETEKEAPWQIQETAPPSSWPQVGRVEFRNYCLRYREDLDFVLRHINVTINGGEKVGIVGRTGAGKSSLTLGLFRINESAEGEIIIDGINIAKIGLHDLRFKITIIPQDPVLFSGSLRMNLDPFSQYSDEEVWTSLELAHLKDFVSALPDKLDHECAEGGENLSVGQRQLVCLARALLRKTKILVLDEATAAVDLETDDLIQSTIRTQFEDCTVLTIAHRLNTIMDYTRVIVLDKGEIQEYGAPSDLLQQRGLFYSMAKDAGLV

On to `CCCCCC(=O)OCC(COP(=O)([O-])OCC[N+](C)(C)c1ccc([N+](=O)[O-])c2nonc12)OC(=O)CCCCC` (stereo unspecified), for which the Activity result is “substrate []”.
